Measured values as given in ChEMBL document CHEMBL3507680, “University of Dundee, Gates Library screen for HepG2 cell viability”.

Assay: Human HepG2 cell viability assay in 384 well format
Format: toxicity, cell-based
Parameters: dose 125 nL, time 70.5 hour; cytotoxicity at 70.5 h: concentration not given beside the values
Details: HepG2 cells, read-out: Inhibition

Row | SMILES | cytotoxicity at 70.5 h [%]
1 | COc1ccc(C(=O)C2CCCN(Cc3ccon3)C2)c(OC)c1 (stereo not given) | -10.4
2 | O=C1N(Cc2ccc(Cl)cc2)CCC12CCCNC2 (stereo not given) | -12.9
3 | Cc1c[nH]nc1C1CCN(C(=O)Cn2cccn2)C1 (stereo not given) | -7.3
4 | Cc1ccc(CS(=O)(=O)CC(=O)NCCCOC(C)C)cc1 | -10.8
5 | COC[C@@H]1CC[C@H]2[C@H](CCN2S(=O)(=O)c2ccc(C)cc2)O1 | -4.48
6 | CN(Cc1noc2c1CCCC2)C(=O)Cn1c(=O)cnc2ccccc21 | -12.8
7 | CCc1nnc(CNC(=O)CCC2CCCCN2C)s1 (stereo not given) | 6.71
8 | c1cc(COC[C@@H]2CCC[C@@]23CNCCO3)ccn1 | 8.32
9 | Cc1ccc(C(C)NC(=O)N2CCN(C(=O)CC(F)(F)F)CC2)o1 (stereo not given) | -3.77
10 | c1cnc(NC2COC3(CCN(Cc4cccs4)CC3)C2)nc1 (stereo not given) | -97
11 | O=C(NCc1cccs1)C1CCCN(c2cc(-n3cncn3)ncn2)C1 (stereo not given) | -3.14
12 | O=C(c1ccc[nH]1)N1CCOCC2(CCN(C3CCOCC3)C2)C1 (stereo not given) | -19
13 | Cn1cc(CCC(=O)N2CCN(Cc3ccncc3)CC2)cn1 | 2.28
14 | CC(C)C[C@H](Nc1nc(C2CCCC2)nc2c1cnn2C)C(N)=O | -6.77
15 | Cc1[nH]c2ccccc2c1CCNC(=O)N1CCC2(C1)OCCO2 | -17.8
16 | CCn1cc(CN(C)C(=O)c2cccc(CCC(C)(C)O)c2)cn1 | -3.4
17 | CCn1nc2c(cc1=O)CN(Cc1nc(-c3ccoc3)no1)CC2 | 19.1
18 | Cc1noc(C)c1C(=O)N(Cc1ccsc1)CC1CCCO1 (stereo not given) | 3.1
19 | CC1c2ncc(CNC(=O)C3CC3)n2CCN1Cc1nccs1 (stereo not given) | -7.88
20 | Cc1ccc(-c2nc(CC(=O)NCC3CCOC3)cs2)o1 (stereo not given) | -2.56
21 | O=C(c1cc(=O)n(-c2ccccc2)[nH]1)N1CCOC(C(F)(F)F)C1 (stereo not given) | 5.57
22 | Cc1cccc(OCCC(=O)NCC(C)(C)C(N)=O)c1 | 5.99
23 | CCn1nc(CNC(=O)C2CCCN(CC(N)=O)C2)c2ccccc21 (stereo not given) | -14.9

Row | SMILES | cytotoxicity at 70.5 h [%]
24 | CC(C)(C)C(O)CN1CCN(CC(=O)NCC(F)(F)F)CC1 (stereo not given) | 13.1
25 | CCN1CCC(CNCc2c[nH]nc2C(C)(C)C)C1 (stereo not given) | -2.99
26 | Cc1nc(CN2CCOC(Cn3cccn3)C2)no1 (stereo not given) | -3.79
27 | O=C(O)[C@@H]1CN(C2CCCCC2)C[C@H]1C1CC1 | -13.9
28 | CCS(=O)(=O)N1CCCn2c(nc(CN3CCCC3)cc2=O)C1 | -7.43
29 | CNC(=O)c1ccccc1NCc1ncnn1C | -96.8
30 | Cc1noc(C2CCN(C(=O)c3cc(Cl)c(Cl)n3C)CC2)n1 | -2.97
31 | CC(C)Cc1noc(CN(C)c2cc(N(C)C)ncn2)n1 | -7.9
32 | COCC(=O)NCc1cnc(C)nc1-c1cn(C)c2ccc(OC)cc12 | -7.48
33 | Cc1cccc(-c2noc([C@@H]3C[C@@H](O)CN3C3CCOCC3)n2)c1 | -3.79
34 | CCCc1ccc2oc(C(=O)N3CCC(O)CC3)c(C)c2c1 | 6.68
35 | COc1ncccc1NC(=O)N(CC(C)C)C1CC1 | -8.09
36 | CN(C)CC1CSCCCN1C(=O)c1ccsc1 (stereo not given) | -6.74
37 | CC(C)NC(=O)C1CCN(Cn2ccc(-c3ccc(F)cc3)n2)CC1 | 4
38 | O=C(CCc1ccsc1)NS(=O)(=O)Cc1ccon1 | -0.591
39 | CNc1ncc(C(=O)N2CCC(c3ccccc3C(=O)O)C2)cn1 (stereo not given) | -5.85
40 | CCOCC1CN(Cc2cnn(C)c2)Cc2cnn(C)c21 (stereo not given) | -9.88
41 | CCc1cnc(NCc2nc(COC)no2)nc1 | -11.1
42 | CC(=O)NC1CCCc2c1[nH]c1ccc(F)cc21 (stereo not given) | 29.6
43 | NC(=O)C1CN(C(=O)Nc2cc(Cl)cc(Cl)c2)CCO1 (stereo not given) | -3.67
44 | O=C(O)Cn1ccc(=O)c2ccc(Cl)cc21 | -7.34
45 | CC(Cn1ccnc1)NC(=O)N1CCCN(Cc2cccs2)CC1 (stereo not given) | -14
46 | Cn1ccnc1CN1CCC2(CC1)CC(Nc1ccccn1)CO2 (stereo not given) | -2.46

Row | SMILES | cytotoxicity at 70.5 h [%]
47 | CN(C)c1cc(C(F)(F)F)nc(N2CCCC2c2ccccn2)n1 (stereo not given) | -5.01
48 | COc1ncccc1CNC(=O)N(Cc1ccc(F)cc1F)C1CC1 | -12.4
49 | Cc1cccc(CN2CCC3(CC2)NC(=O)CC3c2ccccc2)n1 (stereo not given) | -7.81
50 | CN(CC(=O)N1CCC(COc2ccccc2)CC1)c1cnccn1 | -0.223
51 | Cc1ccc(CN2CCn3c(CNC(=O)c4cccn4C)cnc3C2)s1 | -10.3
52 | CC(C(=O)N(C)C)N1CCCN(C(=O)Oc2ccccc2)CC1 (stereo not given) | -9.71
53 | CN(CC(=O)N1CCOCC(CO)C1)Cc1ccc(F)cc1 (stereo not given) | -12.7
54 | CNc1cccc(C2CCCN(C(C)=O)C2)n1 (stereo not given) | -19.3
55 | Fc1cccc(N2C[C@H]3CCN(c4cccnc4)C[C@H]3C2)c1 | -5.68
56 | CCOc1ncccc1NC(=O)c1ccc(C)s1 | -7.78
57 | COc1ccc(N2CCN(Cc3nc(CSC)no3)C(C)C2=O)cc1 (stereo not given) | -21.8
58 | CN(C)Cc1nn(C)c2c1CN(C(=O)c1cccc(C#N)c1)C2 | -11.5
59 | CCC(C)(NCC(N)=O)c1nccs1 (stereo not given) | -4.9
60 | O=C(c1cscn1)N1CC[C@@H]2[C@@H]1CCN2C1CCOC1 (stereo not given in full) | -1.49
61 | COC(=O)C(C)(C)NC(=O)C1CC(=O)N(C)C1 (stereo not given) | -7.02
62 | CCN1CCNC(=O)C12CCN(C(=O)Cc1ccsc1)CC2 | 2.23
63 | Cc1nccn1CCC1CCCCN1Cc1ccncc1 (stereo not given) | 3.75
64 | CCC(CO)N(Cc1ccco1)C(=O)c1ccccc1SC (stereo not given) | 10.8
65 | O=S(=O)(NCc1ccc(S(=O)(=O)N2CCCC2)s1)c1ccc(F)cc1Cl | -1.37
66 | Clc1ccccc1C1(c2ccnc(-c3ncccn3)n2)CCNCC1 | -12.3
67 | Cc1ccc(CN2CCCC2(C(N)=O)c2cnccn2)c(C)c1 (stereo not given) | -0.964
68 | Cc1[nH]ccc1C(=O)NC1CCC(N2C(=O)CCC2=O)CC1 (stereo not given) | -2.84
69 | CC(C)NC(=O)[C@H]1C[C@H]2OCC[C@H]2N(Cc2ccc3ccccc3n2)C1 | -0.387

Row | SMILES | cytotoxicity at 70.5 h [%]
70 | Cc1cc(N(C)CCCn2cccn2)nc(N)n1 | -12.7
71 | CNC(=O)CNC(=O)Nc1ccc(Br)c(F)c1 | -4.08
72 | N#Cc1ccc(OC[C@]23COC[C@H]2CN(Cc2nccs2)C3)nc1 | -4.7
73 | O=C1COc2ccc(Br)cc2CN1CC1CC1 | -16.7
74 | O=C(CCc1ccccn1)N1CCCC(n2cncn2)C1 (stereo not given) | -13.6
75 | N[C@H]1CN(C(=O)CCc2cc(Cl)no2)C[C@@H]1c1ccccc1 | 29
76 | CN(C)CCNC(=O)c1cnc2c(c1)nc(-c1ccccc1Cl)n2C | -10.7
77 | C=C1C(C)(C)[C@H]2CC[C@]1(C(=O)N1CCC(n3cc(CCO)nn3)CC1)C2 | -10.3
78 | O=c1ccc2c(n1Cc1ccncc1)CCN(Cc1ccoc1)CC2 | 1.47
79 | CN(C)CC1(O)CCN(S(=O)(=O)c2ccc(F)c(F)c2)C1 (stereo not given) | 32.6
80 | CCS(=O)(=O)N1CCC2(CC1)CN(c1cncnc1)C(=O)CO2 | -15.9
81 | Cc1ccc(CNCc2cccc(NC(=O)CCN3CCOCC3)c2)s1 | -5.6
82 | Cc1cc(C)n(CCCNc2ncnc3c2NC(=O)CN3)n1 | -8.3
83 | Cc1noc([C@@H]2CC[C@@H]3[C@@H](CCN3S(=O)(=O)C3CC3)O2)n1 | 2.67
84 | Cc1cc(NC(=O)CCN2CCCCC2Cn2cccn2)no1 (stereo not given) | -11.9
85 | CCC(=O)N1CCC2(CC1)C(=O)N(C)CCN2Cc1csc(C)n1 | -4.08
86 | CNc1cc(C)nc(N2Cc3cnn(Cc4ccc(F)cc4)c3C2)n1 | 11.4
87 | NS(=O)(=O)c1ccc(CNC(=O)c2ccc(Cl)cc2F)cc1 | 5.61
88 | Cc1cc(C)cc(C(=O)N2CCN(C(=O)N(C)C)CC2(C)C)c1 | -0.125
89 | COCC(=O)NC1CC2(CCN(CCO)CC2)c2ccccc21 (stereo not given) | 8.06
90 | CCN(C)C(=O)c1cc(-c2cn(C(C)C)cn2)n2ccccc12 | 26.7
91 | NC(=O)c1nc2c(s1)CCN(Cc1ccccc1)CC2 | -2.47
92 | Cc1cc(S(=O)(=O)NCC(C)(C)N)c(F)cc1F | -0.878

Row | SMILES | cytotoxicity at 70.5 h [%]
93 | CSc1ncc(CN2C[C@H]3CC[C@@H]2CN(C2CCOCC2)C3)cn1 | -3.4
94 | CCc1nccn1C1CCCN(C(=O)c2cc[nH]n2)C1 (stereo not given) | -1.71
95 | CC1(C)COCCN1C(=O)CCc1nc(-c2ccncc2)no1 | 4.51
96 | CCCS(=O)(=O)N1CCC2(CCCC(=O)N2C)CC1 | -9.65
97 | CCOc1c(CNC2CSCCSC2)cccc1OC | 20.2
98 | CCCn1ncc(CN(Cc2ccsc2)Cc2ccco2)c1C | -6
99 | O=C(c1ccco1)N1CCc2c(nc(-c3ccncc3)[nH]c2=O)C1 | 13
100 | CC1c2ncc(COc3cccnc3)n2CCN1Cc1cnn(C)c1 (stereo not given) | -9.85
101 | CCn1ncc2c(C(F)F)cc(-c3ccn(C)n3)nc21 | -7.69
102 | Cc1nn(CCC#N)c(C)c1CCC(=O)N(C(C)C)C1CC1 | -10.9
103 | COc1ncccc1C(=O)N1CCn2c(COCC3CC3)cnc2C1C (stereo not given) | -0.554
104 | O=C(c1nc2c(s1)CCCN2CC1CC1)N1CCCC1 | -0.67
105 | Cc1noc(C)c1CN1CC[C@@H]2O[C@H](COCC(C)C)CC[C@@H]21 | -3.29
106 | CCCC(=O)NCC1CCCN(Cc2cc(C)c(C)o2)C1 (stereo not given) | 0.818
107 | CCC(=O)N(CC(N)=O)Cc1cccc(Oc2ccccc2)c1 | 0.0156
108 | Fc1ccccc1CN1CCC(c2noc(-c3ccccn3)n2)CC1 | 1.88
109 | CC(C)CCN1CCN(C(=O)c2c[nH]c(=O)[nH]2)CC1 | -8.02
110 | c1cnnc(N2CCCC2CNCc2nc(-c3ccoc3)no2)c1 (stereo not given) | 10
111 | COCCNC(=O)CN1CCCC1c1c(C)nn(C)c1Cl (stereo not given) | -1.71
112 | Cc1cc(C(=O)N2CCC(O)(Cn3c(C)cc4ccncc43)CC2)on1 | -0.77
113 | Cc1ccc2nc(C(=O)N3C[C@@H](C(=O)O)[C@H](c4cccnc4)C3)cn2c1 | -5.46
114 | COc1ccc(C(C)N2CCC(C(=O)N(C)C)CC2)cc1Cl (stereo not given) | -7.99
115 | COc1ccnc(NC(=O)c2ccsc2)c1 | -10.1
